In US20080103141A1, “New compounds” (Biovitrum, priority 2006, published 2008) one finds EC50 data, which are given here for three compounds.

Each structure is given as a SMILES string.

The target in the experiment is T1, human GPR119 receptor (Homo sapiens, UniProt Q8TDV5).
T1 construct: expressed in transfected cells
T1 sequence (Q8TDV5 1-335): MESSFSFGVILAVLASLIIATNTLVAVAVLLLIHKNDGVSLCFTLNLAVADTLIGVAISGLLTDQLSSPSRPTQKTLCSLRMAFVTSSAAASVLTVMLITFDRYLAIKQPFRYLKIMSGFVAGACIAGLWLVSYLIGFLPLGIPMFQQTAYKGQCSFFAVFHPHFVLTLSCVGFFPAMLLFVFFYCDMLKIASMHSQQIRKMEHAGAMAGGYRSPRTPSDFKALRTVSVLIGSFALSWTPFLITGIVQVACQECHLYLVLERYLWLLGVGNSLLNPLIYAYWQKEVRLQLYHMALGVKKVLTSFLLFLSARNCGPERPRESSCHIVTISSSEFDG
Nature of the experiment: Human GPR119 activity assay (cAMP HTRF in HEK293-hGPR119 cells). It is filed as cell-based. The conditions noted are these: stimulation of cAMP in HEK293 cells stably expressing human GPR119, 20 min at room temperature, read-out: Agonist potency at the human GPR119, EC50. The method, then: Human GPR119 Activity Assay
Agonists to the human GPR119 receptor were characterized by measuring human GPR119 receptor-mediated stimulation of cyclic AMP (cAMP) in HEK 293 cells expressing the human GPR119 receptor.
Briefly, cAMP content was determined using a cAMP kit based on HTRF technology (Homogeneous Time-Resolved Fluorescence, Cisbio Cat. no. 62AM2PEC). HEK293 cells stably expressing the human GPR119 receptor (HEK293-hGPR119 cells) were cultured in DMEM (Gibco # 31966-021) supplemented with 10% Bovine Calf Serum (Hyclone # SH30072.03), and, 500 μg/mL Hygromycin B (Roche Diagnostics 843555). At 80% confluency, cells were detached using Trypsine and aliquoted at a density of 5×10^6 cells/mL in freezing medium (DMEM (Gibco # 31966-021), 20% BCS (Hyclone # SH30072.03), 10% DMSO (Sigma #D2650) and stored at −135° C. On the experimental day, HEK293-hGPR119 cells were thawn and diluted to 0.4×10^6 cells/mL in assay buffer (1×HBSS (Gibco Cat. no. 14025-049), 20 mM Hepes (Gibco Cat. no. 15630-056), 0.1% BSA, pH 7.4) and incubated with test substances for 20 min at room temperature. After addition of HTRF reagents diluted in lysis buffer, the 96- or 384-well plates were incubated 1 hour, followed by measuring the fluorescence ratio at 665 nm/620 nm. Test substances was diluted in compound buffer (1×HBSS (Gibco Cat. no. 14025-049), 20 mM Hepes (Gibco Cat. no. 15630-056), 0.1% BSA, 2 mM IBMX (Sigma-Aldrich Cat. No. 17018, pH 7.4). The potency of the agonist was quantified by determine the concentration that cause 50% activation of hGPR119 evoked increase in cAMP, EC50.
(TR-FRET usually uses a lanthanide donor and a delayed reading to cut background.)
Turning to `CC(C)(C)OC(=O)N1CCC(COc2ncc(-c3ccc(S(C)(=O)=O)cc3)cn2)CC1` [EXAMPLE A2, tert-Butyl 4-[({5-[4-(methylsulfonyl)phenyl]pyrimidin-2-yl}oxy)methyl]piperidine-1-carboxylate], the EC50 (commonly the concentration giving half of the maximal effect) amounted to 14 nM.
With `CC(C)(C)OC(=O)N1CCC(CNc2ncc(-c3ccc(S(C)(=O)=O)cc3)cn2)CC1` [EXAMPLE A22, tert-Butyl 4-[({5-[4-(methylsulfonyl)phenyl]pyrimidin-2-yl}amino)methyl]piperidine-1-carboxylate] the figure was 55 nM; with `CC(C)(C)OC(=O)N1CCC(NCc2cnc(-c3ccc(S(C)(=O)=O)cc3)nc2)CC1` [EXAMPLE B1, tert-Butyl 4-[({2-[4-(methylsulfonyl)phenyl]pyrimidin-5-yl}methyl)amino]piperidine-1-carboxylate], 453 nM.
